Results taken from patent publication US11390664B2, “Antibodies that potently neutralize hepatitis B virus and uses thereof” (priority 2015, dated 2022).

What was measured:
HBV (genotype D) = experiment: HBV spreading in humanized uPA/SCID mice, treatment from 3 weeks post-infection; type: in vivo, uPA/SCID mice repopulated with primary human hepatocytes; details: for cccDNA measurements versus mice sacrificed 3 weeks post HBV infection: treated from week 3 to week 9 post-infection
[1] = test system: HBsAg serotypes (adw, ady and ayw); experiment: ELISA binding to HBsAg serotypes; design: species or system hepatitis B virus; details: similar and low EC50 values
HBV = HBV neutralization on differentiated HepaRG cells; type: cell-based, hepatitis B virus; details: HBC34 result at 5 and 0.5 μg/ml, antibodies tested at 5, 0.5 and 0.05 μg/ml
Protocol: At the end of the incubation, the cells were washed and further cultivated. Medium was changed every 3 days. Infection was detected by measuring in enzyme-linked immunosorbent assay (ELISA) the levels of hepatitis B surface antigen (HBsAg) and hepatitis B e antigen (HBeAg) secreted into the culture supernatant from day 7 to 11 post-infection and by detecting HBcAg staining in an immunofluorescence assay.

[2] = test system: 19 different HBsAg genotype D mutants; type: binding, hepatitis B virus; details: 5 μg/ml
[3] = test system: antigenic loop region of the HBsAg; type: binding, hepatitis B virus; details: antibody at 1 μg/ml
HBV viral particles = experiment: Western blot on HBV viral particles under reducing conditions; type: binding, hepatitis B virus
Description: Ab4 is a comparative antibody, which is also reactive against the antigenic loop.

HBsAg (adw subtype) = experiment: ELISA binding of HBC34 variants to HBsAg adw antigen; design: species or system hepatitis B virus; details: Example 11, 18 variants, FIG. 21

Row | Molecule | cccDNA measurements versus mice sacrificed 3 weeks post HBV infection (HBV (genotype D)) | binding to three HBsAg serotypes (adw, ady and ayw) [1] | neutralization of HBV infection (HBV) | number of the 19 HBsAg mutants bound [2] | binding to three additional peptides (SEQ ID NO 53, 54, 55) [3] | reactivity in western blot (HBV viral particles) | decrease of levels of circulating HBsAg (HBV (genotype D); baseline to week 6 of treatment (week 9 post-infection)) | effect of mutation(s) on binding to HBsAg compared with parental HBC34 (HBsAg (adw subtype))
1 | C=C1[C@H](CO)[C@@H](O)C[C@@H]1n1cnc2c(=O)[nH]c(N)nc21 [entecavir, reference compound] | did not differ significantly |  |  |  |  |  |  | 
2 | HBC34: IgG1-type fully human monoclonal antibody against HBsAg antigenic loop; VH SEQ ID NO: 41, VL SEQ ID NO: 42 | did not differ significantly | binds with high affinity | neutralized completely | 18 | recognized with a lower signal | does not react at all | > 1 log | 
3 | HBC34-v2: HBC34 variant, W107F in the CDR3 of the VH and W107A in the CDR3 of the VL (antibody, V domains shown) VH: ELQLVESGGGWVQPGGSQRLSCAASGRIFRSFYMSWVRQAPGKGLEWVATINQDGSEKLYVDSVKGRFTISRDNAKNSLFLQMNNLRVEDTAVYYCAAFSGNSGGMDVWGQGTTVSVSS VL: SYELTQPPSVSVSPGQTVSIPCSGDKLGNKNVCWFQHKPGQSPVLVIYEVKYRPSGIPERFSGSNSGNTATLTISGTQAMDEAAYFCQTADSTTVVFGGGTRLTVL |  |  |  |  |  |  |  | completely abolished
